Tests used:
[1] = system: mice with ethanol induced liver damage; assay: Ethanol induced liver damage model in mice; type: in vivo, Kunming mice
Description: Kunming mice of clean grade (male, weight 20±2 g), after adaptively fed for 3 days, are randomly divided into normal group, model group, bifendate positive control group (200 mg/kg), AD group (0.88 mmol/kg), low (0.44 mmol/kg), median (0.66 mmol/kg) and high (0.88 mmol/kg) dosage groups of compound A, and median (0.66 mmol/kg) and high (0.88 mmol/kg) dosage groups of compound B, with 8 mice in each group. Positive group and each test group are intragastrically given with respective suspension prepared with 0.5% CMC-Na, and normal group and model group are given with 0.5% CMC-Na. The drugs are given for 3 days, and 1 h after the last administration, all mice except those in the normal group are intragastrically administrated with a single dose of 50% EtOH ([…]). After 16 h, the eyeball of the mice in each group is enucleated to collect blood, which is centrifuged at 3000 rpm for 15 min to separate serum. ALT and AST activities are tested respectively (Nanjing Jiancheng Bioengineering Institute). The left lobe of liver is taken to prepare 10% homogenate using physiological saline, MDA (Nanjing Jiancheng Bioengineering Institute) content is determined. Experimental data are expressed as average±standard deviation (X±s), analyzed with SPSS 11.5 statistic software, with P<0.05 meaning there is a significant difference. Other agents, drugs and experimental methods are the same as in EXAMPLE 1.

[2] = system: mice with carbon tetrachloride induced liver damage; assay: Carbon tetrachloride induced chemical liver damage model in mice; type: in vivo, Kunming mice
Description: Kunming mice of clean grade (male, weight 20±2 g), after adaptively fed for 3 days, are randomly divided into normal group, model group, bifendate positive control group (200 mg/kg), AD group (0.88 mmol/kg), low dosage group (0.66 mmol/kg) and high dosage group (0.88 mmol/kg) of compound A, B, C and D, with 8 mice in each group. Positive group and each test group are intragastrically given with respective suspension prepared with 0.5% CMC-Na, and normal group and model group are given with 0.5% CMC-Na. The drugs are given for 3 days, and 1 h after the last administration, all mice except those in the normal group are intraperitoneally injected with a single dose of 0.3% carbon tetrachloride in peanut oil (0.1 mL/10 g). After 16 h, the eyeball of the mice in each group is enucleated to collect blood, which is centrifuged at 3000 rpm for 15 min to separate serum. ALT and AST activities are tested respectively (Nanjing Jiancheng Bioengineering Institute). The left lobe of liver is taken to prepare 10% homogenate using physiological saline, MDA (Nanjing Jiancheng Bioengineering Institute) and PGE2 contents are determined. Experimental data are expressed as average±standard deviation (X±s), analyzed with SPSS 11.5 statistic software, with P<0.05 meaning there is a significant difference. Other agents, drugs and experimental methods are the same as in EXAMPLE 1. In experimental investigation of both models, the following grouping method is used: Kunming mice of clean grade (male, weight 20±2 g) are randomly divided into normal group, model group, bifendate group (200 mg/kg), AD group (0.88 mmol/kg), low dosage group (0.66 mmol/kg) and high dosage group (0.88 mmol/kg) of compound E, with 8 mice in each group. Other agents, drugs and experimental methods are the same as in EXAMPLE 1 and in EXAMPLE 4, respectively.

[3] = dosage groups not distinguished, P<0.01
[4] = dosage groups not distinguished (0.66 and 0.88 mmol/kg), P<0.01
[5] = high dosage 0.88 mmol/kg vs AD 0.88 mmol/kg, P<0.05
[6] = high dosage 0.88 mmol/kg, P<0.05
[7] = low dosage 0.66 mmol/kg vs AD 0.88 mmol/kg, P<0.05

C=C1CCC2C(C)(CO)C(O)CCC2(C)C1C=CC1=CC(=Cc2ccc(Cl)cc2)OC1=O (stereo not drawn) [Compound A]
ALT activity in serum vs model group [1, 3]: effectively suppress
AST activity in serum vs model group [1, 3]: effectively suppress
MDA content in liver homogenate vs model group [1, 3]: effectively reduce the MDA content
AST activity decreasing magnitude compared with AD group ([1]; high dosage 0.88 mmol/kg, P<0.01): notably larger
ALT activity decreasing magnitude compared with AD group ([1]; high dosage 0.88 mmol/kg, P<0.01 (A), P<0.05 (B)): notably larger
protective effect against liver damage induced by ethanol (summary) ([1]; mice, intragastric, 3 days): protective effect
ALT activity in serum vs model group [2, 4]: notably suppress the increase
AST activity in serum vs model group [2, 4]: notably suppress the increase
MDA level in liver homogenate vs model group [2, 3]: effectively reduce
PGE2 level in liver homogenate vs model group [2, 3]: effectively reduce
magnitude of decrease in ALT activity compared to AD group [2, 5]: significantly better
magnitude of decrease in AST activity compared to AD group [2, 5]: significantly better
PGE2 content compared to AD group [2, 6]: notably lower
ability to reduce lipid peroxide level in liver homogenate compared to AD group [2, 6]: stronger ability to reduce the lipid peroxide level
magnitude of decrease in ALT activity compared to AD group [2, 7]: significantly better
magnitude of decrease in AST activity compared to AD group [2, 7]: significantly better
ability to reduce lipid peroxide level in liver homogenate compared to AD group ([2]; low dosage 0.66 mmol/kg, P<0.05): stronger ability to reduce the lipid peroxide level
protective effect against liver damage induced by carbon tetrachloride (summary) ([2]; mice, intragastric, 3 days): protective effect
